Holding throughout (experiment): relative viability (nuclei count vs DMSO), 5 days (fraction); higher = more cells survive
Compound in the assay “AGI-6780 + Luminespib”: O=C(Nc1cccc(C(F)(F)F)c1)Nc1cc(S(=O)(=O)NC2CC2)ccc1-c1ccsc1 [AGI-6780] + CCNC(=O)c1noc(-c2cc(C(C)C)c(O)cc2O)c1-c1ccc(CN2CCOCC2)cc1 [Luminespib] (partner 0.01 µM)
The method, boiled down:
(§1)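 After 5 days of treatment, lung cancer cells in 1536-well plates were fixed and stained in a single step (final 0.05% Triton X-100, 1% formaldehyde, 1 ug/ml Hoechst) and their nuclei counted on 4× images. Treatment had been applied by pin tool the day after seeding as one drug alone or as a fixed anchor-drug dose with five library-drug doses (not always all listed) in √10 steps. Relative viability is the nuclei count of treated wells divided by that of vehicle wells, and values are medians of duplicate plates.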

Compound in the assay “AGI-6780 + Lapatinib”: O=C(Nc1cccc(C(F)(F)F)c1)Nc1cc(S(=O)(=O)NC2CC2)ccc1-c1ccsc1 [AGI-6780] + CS(=O)(=O)CCNCc1ccc(-c2ccc3ncnc(Nc4ccc(OCc5cccc(F)c5)c(Cl)c4)c3c2)o1 [Lapatinib] (partner 2 µM)
In a few lines:
as §1

Compound in the assay “AGI-6780 + Decitabine”: O=C(Nc1cccc(C(F)(F)F)c1)Nc1cc(S(=O)(=O)NC2CC2)ccc1-c1ccsc1 [AGI-6780] + Nc1ncn([C@H]2C[C@H](O)[C@@H](CO)O2)c(=O)n1 [Decitabine] (partner 2 µM)
The method, boiled down:
as §1

Compound in the assay “AGI-6780 + Olaparib”: O=C(Nc1cccc(C(F)(F)F)c1)Nc1cc(S(=O)(=O)NC2CC2)ccc1-c1ccsc1 [AGI-6780] + O=C(c1cc(Cc2n[nH]c(=O)c3ccccc23)ccc1F)N1CCN(C(=O)C2CC2)CC1 [Olaparib] (partner 8 µM)
In a few lines: as §1

Regarding NCI-H2009, the relative viability is 1.01 with AGI-6780 + Luminespib (first compound 0.08 µM); 1.04 in the assay with AGI-6780 + Luminespib (first compound 0.253 µM); 0.994 with AGI-6780 + Luminespib (first compound 0.8 µM); 0.988 in the assay with AGI-6780 + Luminespib (first compound 2.53 µM); 0.946 in the assay with AGI-6780 + Luminespib (first compound 8 µM); 0.952 with AGI-6780 + Lapatinib (first compound 0.08 µM). The relative viability is 0.889 with AGI-6780 + Lapatinib (first compound 0.253 µM); 0.976 with AGI-6780 + Lapatinib (first compound 0.8 µM); 0.917 in the assay with AGI-6780 + Lapatinib (first compound 2.53 µM); 0.959 with AGI-6780 + Lapatinib (first compound 8 µM); 0.396 in the assay with AGI-6780 + Decitabine (first compound 0.08 µM); 0.365 with AGI-6780 + Decitabine (first compound 0.253 µM). Besides, the relative viability stood at 0.428 with AGI-6780 + Decitabine (first compound 0.8 µM); 0.322 in the assay with AGI-6780 + Decitabine (first compound 2.53 µM); 0.382 with AGI-6780 + Decitabine (first compound 8 µM); 0.643 with AGI-6780 + Olaparib (first compound 0.08 µM); 0.745 with AGI-6780 + Olaparib (first compound 0.253 µM); 0.67 with AGI-6780 + Olaparib (first compound 0.8 µM). Moreover, the figures for the relative viability in the assay with AGI-6780 + Olaparib (first compound 2.53 µM) and in the assay with AGI-6780 + Olaparib (first compound 8 µM) were 0.644 and 0.625, respectively.

NCI-H358: the relative viability with AGI-6780 + Luminespib (first compound 0.08 µM) stood at 0.37; in the assay with AGI-6780 + Luminespib (first compound 0.253 µM), 0.255; with AGI-6780 + Luminespib (first compound 0.8 µM) it was 0.424; in the assay with AGI-6780 + Luminespib (first compound 2.53 µM), 0.204; with AGI-6780 + Luminespib (first compound 8 µM), 0.439; in the assay with AGI-6780 + Lapatinib (first compound 0.08 µM) it was 0.517. Moreover, the relative viability amounted to 0.6 with AGI-6780 + Lapatinib (first compound 0.253 µM); 0.473 with AGI-6780 + Lapatinib (first compound 0.8 µM); 0.375 with AGI-6780 + Lapatinib (first compound 2.53 µM); 0.417 with AGI-6780 + Lapatinib (first compound 8 µM); 0.219 with AGI-6780 + Decitabine (first compound 0.08 µM); 0.242 with AGI-6780 + Decitabine (first compound 0.253 µM). Also, the relative viability in the assay with AGI-6780 + Decitabine (first compound 0.8 µM) came to 0.208; with AGI-6780 + Decitabine (first compound 2.53 µM), 0.184; in the assay with AGI-6780 + Decitabine (first compound 8 µM) it was 0.194; in the assay with AGI-6780 + Olaparib (first compound 0.08 µM), 0.692; with AGI-6780 + Olaparib (first compound 0.253 µM) it was 0.64; with AGI-6780 + Olaparib (first compound 0.8 µM), 0.834. The relative viability was 0.452 with AGI-6780 + Olaparib (first compound 2.53 µM) and 0.636 in the assay with AGI-6780 + Olaparib (first compound 8 µM).

Regarding NCI-H1650, the relative viability with AGI-6780 + Luminespib (first compound 0.08 µM) worked out at 0.187; with AGI-6780 + Luminespib (first compound 0.253 µM) it was 0.203; with AGI-6780 + Luminespib (first compound 0.8 µM), 0.219; with AGI-6780 + Luminespib (first compound 2.53 µM) it was 0.228; in the assay with AGI-6780 + Luminespib (first compound 8 µM), 0.191; in the assay with AGI-6780 + Lapatinib (first compound 0.08 µM), 0.739. For the same cell line, the relative viability was determined as 0.777 with AGI-6780 + Lapatinib (first compound 0.253 µM); 1.16 with AGI-6780 + Lapatinib (first compound 0.8 µM); 0.789 with AGI-6780 + Lapatinib (first compound 2.53 µM); 0.874 with AGI-6780 + Lapatinib (first compound 8 µM); 0.435 with AGI-6780 + Decitabine (first compound 0.08 µM); 0.485 in the assay with AGI-6780 + Decitabine (first compound 0.253 µM). The relative viability amounted to 0.381 in the assay with AGI-6780 + Decitabine (first compound 0.8 µM); 0.305 with AGI-6780 + Decitabine (first compound 2.53 µM); 0.387 with AGI-6780 + Decitabine (first compound 8 µM); 0.884 with AGI-6780 + Olaparib (first compound 0.08 µM); 0.774 with AGI-6780 + Olaparib (first compound 0.253 µM); 0.934 with AGI-6780 + Olaparib (first compound 0.8 µM). In addition, the relative viability with AGI-6780 + Olaparib (first compound 2.53 µM) was found to be 0.689; with AGI-6780 + Olaparib (first compound 8 µM) it was 0.791.

Regarding EKVX, the relative viability with AGI-6780 + Luminespib (first compound 0.08 µM) came out at 0.916; in the assay with AGI-6780 + Luminespib (first compound 0.253 µM), 0.877; in the assay with AGI-6780 + Luminespib (first compound 0.8 µM), 0.989; with AGI-6780 + Luminespib (first compound 2.53 µM) it was 0.918; with AGI-6780 + Luminespib (first compound 8 µM) it was 0.847; in the assay with AGI-6780 + Lapatinib (first compound 0.08 µM) it was 0.234. Also, the relative viability with AGI-6780 + Lapatinib (first compound 0.253 µM) amounted to 0.19; in the assay with AGI-6780 + Lapatinib (first compound 0.8 µM), 0.217; in the assay with AGI-6780 + Lapatinib (first compound 2.53 µM), 0.192; with AGI-6780 + Lapatinib (first compound 8 µM) it was 0.216; with AGI-6780 + Decitabine (first compound 0.08 µM) it was 0.347; with AGI-6780 + Decitabine (first compound 0.253 µM), 0.343. Moreover, the relative viability with AGI-6780 + Decitabine (first compound 0.8 µM) is 0.363; with AGI-6780 + Decitabine (first compound 2.53 µM), 0.324; with AGI-6780 + Decitabine (first compound 8 µM) it was 0.432; with AGI-6780 + Olaparib (first compound 0.08 µM) it was 0.894; with AGI-6780 + Olaparib (first compound 0.253 µM), 0.811; with AGI-6780 + Olaparib (first compound 0.8 µM), 0.935. The relative viability stood at 0.763 with AGI-6780 + Olaparib (first compound 2.53 µM) and 0.863 with AGI-6780 + Olaparib (first compound 8 µM).

Source of the values: the supplement of paper PMC10307832.
